In patent US8193372B2, “Phosphothiophene and phosphothiazole HCV polymerase inhibitors” (Idenix Pharmaceuticals, Inc., priority 2009, dated 2012):

Experiments:
[1] = tested on: HCV Con1 subgenomic replicon of genotype 1b (GS4.1 cells); test: microbe, parasite or virus in culture; format: cell-based, HCV genotype 1b; details: Hepatitis C virus; for EC50: 72 h
in vitro = details: human

Row | SMILES | IC50 [1] | EC50 [1] | CC50 (in vitro)
1 | CCOP(=O)(Nc1cc(-c2ccc(F)cc2)sc1C(=O)O)c1ccc(C)cc1C (stereo not shown) [Compound 22, 2-Thiophenecarboxylic acid, 3-N-[(2,4-dimethyl-phenyl)-phosphonamidateethyl ester]-5-(4-fluorophenyl)] | 0.1 to 8.3 µM | 0.1 to 8.3 µM | > 8.3 µM
2 | CCOP(=O)(Nc1cc(-c2ccc(F)cc2)sc1C(=O)O)c1ccc(Cl)cc1Cl (stereo not shown) [Compound 23] | 0.1 to 8.3 µM | > 8.3 µM | > 8.3 µM
3 | COP(=O)(Nc1cc(-c2ccccc2)sc1C(=O)O)c1ccccc1 (stereo not shown) [Compound 25, 2-Thiophenecarboxylic acid, 3-N-(phenyl-phosphonamidatemethyl ester)-5-phenyl] | > 8.3 µM | > 8.3 µM | > 8.3 µM
4 | COP(=O)(Nc1cc(-c2ccc(-c3cc4ncccn4n3)cc2)sc1C(=O)O)c1ccc(C)cc1C (stereo not shown) [Compound 26] | < 0.1 µM | < 0.1 µM | > 8.3 µM
5 | COP(=O)(Nc1cc(-c2ccccc2)sc1C(=O)O)c1ccc(C)cc1C (stereo not shown) [Compound 27, 2-Thiophenecarboxylic acid, 3-N-[(2,4-dimethyl-phenyl)-phosphonamidatemethyl ester]-5-phenyl] | < 0.1 µM | 0.1 to 8.3 µM | > 8.3 µM
6 | CCOP(=O)(Nc1cc(-c2ccccc2)sc1C(=O)O)c1ccc(Cl)cc1Cl (stereo not shown) [Compound 28, 2-Thiophenecarboxylic acid, 3-N-[(2,4-dichlorophenyl)-phosphonamidateethyl ester]-5-phenyl] | 0.1 to 8.3 µM | > 8.3 µM | > 8.3 µM
7 | CCOP(=O)(Nc1cc(-c2ccc(C#N)cc2)sc1C(=O)O)c1ccc(Cl)cc1Cl (stereo not shown) [Compound 29, 2-Thiophenecarboxylic acid, 3-N-[(2,4-dichlorophenyl)-phosphonamidateethyl ester]-5-(4-cyanophenyl)] |  | > 8.3 µM | > 8.3 µM
8 | CCOP(=O)(c1ccc(C)cc1C)N(c1cc(-c2ccc(F)cc2)sc1C(=O)O)C(C)C (stereo not shown) [Compound 33, 2-Thiophenecarboxylic acid, 3-N-isopropyl-N-[(2,4-dimethyl-phenyl)-phosphonamidateethyl ester]-5-(4-fluorophenyl)] | 0.1 to 8.3 µM | 0.1 to 8.3 µM | > 8.3 µM
9 | COP(=O)(Nc1cc(-c2ccc(Cl)cc2F)sc1C(=O)O)c1ccc(C)cc1C (stereo not shown) [Compound 79] | < 0.1 µM | 0.1 to 8.3 µM | > 8.3 µM
10 | COP(=O)(Nc1cc(-c2ccccc2F)sc1C(=O)O)c1ccc(C)cc1C (stereo not shown) [Compound 80] | 0.1 to 8.3 µM | > 8.3 µM | > 8.3 µM
11 | COc1ccncc1-c1cc(NP(=O)(OC)c2ccc(C)cc2C)c(C(=O)O)s1 (stereo not shown) [Compound 82] | 0.1 to 8.3 µM | 0.1 to 8.3 µM | > 8.3 µM
12 | COP(=O)(Nc1cc(-c2ccc(-c3cc4ncccc4o3)cc2)sc1C(=O)O)C1CC=C(C)CC1 (stereo not shown) [Compound 83] | < 0.1 µM | 0.1 to 8.3 µM | > 8.3 µM
13 | CCCOP(=O)(Nc1cc(-c2ccc(Cl)cc2)sc1C(=O)O)c1ccc(C)cc1C (stereo not shown) [Compound 87] | 0.1 to 8.3 µM | 0.1 to 8.3 µM | > 8.3 µM
14 | COP(=O)(Nc1cc(-c2cccc(F)c2)sc1C(=O)O)c1ccc(C)cc1C (stereo not shown) [Compound 88] | 0.1 to 8.3 µM | 0.1 to 8.3 µM | > 8.3 µM
15 | Cc1ccc(P(=O)(Nc2cc(-c3ccc(Cl)cc3)sc2C(=O)O)OC(C)C)c(C)c1 (stereo not shown) [Compound 89] | 0.1 to 8.3 µM | 0.1 to 8.3 µM | > 8.3 µM
16 | COP(=O)(Nc1cc(-c2cc3ccccc3o2)sc1C(=O)O)c1ccc(C)cc1C (stereo not shown) [Compound 96] | < 0.1 µM | 0.1 to 8.3 µM | > 8.3 µM
17 | COP(=O)(Nc1cc(-c2cc3ccccc3s2)sc1C(=O)O)c1ccc(C)cc1C (stereo not shown) [Compound 97] | < 0.1 µM | 0.1 to 8.3 µM | > 8.3 µM
18 | COP(=O)(Nc1cc(-c2cccs2)sc1C(=O)O)c1ccc(C)cc1C (stereo not shown) [Compound 98] | 0.1 to 8.3 µM | 0.1 to 8.3 µM | > 8.3 µM
19 | COP(=O)(Nc1cc(-c2cccnc2)sc1C(=O)O)c1ccc(C)cc1C (stereo not shown) [Compound 99] | 0.1 to 8.3 µM | > 8.3 µM | > 8.3 µM
20 | COP(=O)(Nc1cc(-c2ccc(-c3cc4nc(C)cc(N)n4n3)cc2)sc1C(=O)O)c1ccc(C)cc1C (stereo not shown) [Compound 100] | < 0.1 µM | < 0.1 µM | > 8.3 µM
21 | COP(=O)(Nc1cc(-c2ccc(C#Cc3cncn3C)cc2)sc1C(=O)O)c1ccc(C)cc1C (stereo not shown) [Compound 101] | < 0.1 µM | 0.1 to 8.3 µM | > 8.3 µM
22 | COP(=O)(Nc1cc(-c2ccc(C#CC3CCCC3)cc2)sc1C(=O)O)c1ccc(C)cc1C (stereo not shown) [Compound 102] | 0.1 to 8.3 µM | > 8.3 µM | > 8.3 µM
23 | COP(=O)(Nc1cc(-c2ccc(C#Cc3ccsc3)cc2)sc1C(=O)O)c1ccc(C)cc1C (stereo not shown) [Compound 103] | < 0.1 µM | < 0.1 µM | > 8.3 µM
24 | COP(=O)(Nc1cc(-c2ccc(C#CCC(C)C)cc2)sc1C(=O)O)c1ccc(C)cc1C (stereo not shown) [Compound 104] | 0.1 to 8.3 µM | > 8.3 µM | > 8.3 µM
25 | COP(=O)(Nc1cc(-c2ccc(-c3cc4nc(C)ccn4n3)cc2)sc1C(=O)O)c1ccc(C)cc1C (stereo not shown) [Compound 105] | < 0.1 µM | < 0.1 µM | > 8.3 µM
26 | C#CCOP(=O)(Nc1cc(-c2ccc(Cl)cc2)sc1C(=O)O)c1ccc(C)cc1C (stereo not shown) [Compound 106] | 0.1 to 8.3 µM | 0.1 to 8.3 µM | > 8.3 µM

Row | SMILES | IC50 [1] | EC50 [1] | CC50 (in vitro)
27 | CCOC(=O)OC(C)N(c1cc(-c2ccc(Cl)cc2)sc1C(=O)OC(C)OC(=O)OC)P(=O)(OC)c1ccc(C)cc1C (stereo not shown) [Compound 108] | > 8.3 µM | 0.1 to 8.3 µM | > 8.3 µM
28 | CCOP(=O)(Nc1cc(-c2ccc(Cl)cc2)sc1C(=O)O)C1CCC(C)CC1 (stereo not shown) [Compound 110] | 0.1 to 8.3 µM | > 8.3 µM | > 8.3 µM
29 | COP(=O)(Nc1cc(-c2ccc(Cl)cc2)sc1C(N)=O)c1ccc(C)cc1C (stereo not shown) [Compound 111] | > 8.3 µM | > 8.3 µM | > 8.3 µM
30 | COP(=O)(Nc1cc(-c2ccc(-c3cc4ncccn4n3)cc2)sc1C(=O)OCc1ccccc1)c1ccc(C)cc1C (stereo not shown) [Compound 112] | 0.1 to 8.3 µM | 0.1 to 8.3 µM | > 8.3 µM
31 | COP(=O)(c1ccc(C)cc1C)N(C)c1cc(-c2ccc(Cl)cc2)sc1C(=O)O (stereo not shown) [Compound 113] | < 0.1 µM | 0.1 to 8.3 µM | > 8.3 µM
32 | COP(=O)(Nc1cc(-c2ccc(NC(=O)c3cscn3)cc2)sc1C(=O)O)c1ccc(C)cc1C (stereo not shown) [Compound 115] | < 0.1 µM | < 0.1 µM | > 8.3 µM
33 | COP(=O)(Nc1cc(I)sc1C(=O)O)c1ccc(C)cc1C (stereo not shown) [Compound 116] | 0.1 to 8.3 µM | > 8.3 µM | > 8.3 µM
34 | CCOP(=O)(Nc1cc(-c2ccc(Cl)cc2)sc1C(=O)O)C1CC=C(C)CC1 (stereo not shown) [Compound 117] | 0.1 to 8.3 µM | > 8.3 µM | > 8.3 µM
35 | COP(=O)(Nc1cc(-c2ccc(C#CC3CC3)cc2)sc1C(=O)O)c1ccc(C)cc1C (stereo not shown) [Compound 118] | < 0.1 µM | 0.1 to 8.3 µM | > 8.3 µM
36 | COP(=O)(Nc1cc(-c2ccc(-c3cc4ncccc4o3)cc2)sc1C(=O)O)c1ccc(Cl)cc1F (stereo not shown) [Compound 119] | < 0.1 µM | < 0.1 µM | > 8.3 µM
37 | COP(=O)(Nc1cc(-c2ccc(-c3cccc([N+](=O)[O-])c3)cc2)sc1C(=O)O)c1ccc(C)cc1C (stereo not shown) [Compound 120] | 0.1 to 8.3 µM | > 8.3 µM | > 8.3 µM
38 | COP(=O)(Nc1cc(-c2ccc(-c3cccc4ncccc34)cc2)sc1C(=O)O)c1ccc(C)cc1C (stereo not shown) [Compound 121] | < 0.1 µM | 0.1 to 8.3 µM | > 8.3 µM
39 | COP(=O)(Nc1cc(-c2ccc(-c3ccc(OCc4ccccc4)nc3)cc2)sc1C(=O)O)c1ccc(C)cc1C (stereo not shown) [Compound 122] | 0.1 to 8.3 µM | > 8.3 µM | > 8.3 µM
40 | COc1cc(-c2ccc(-c3cc(NP(=O)(OC)c4ccc(C)cc4C)c(C(=O)O)s3)cc2)cc(OC)c1OC (stereo not shown) [Compound 123] | 0.1 to 8.3 µM | > 8.3 µM | > 8.3 µM
41 | COP(=O)(Nc1cc(-c2ccc(-c3ccccc3F)cc2)sc1C(=O)O)c1ccc(C)cc1C (stereo not shown) [Compound 124] | 0.1 to 8.3 µM | 0.1 to 8.3 µM | > 8.3 µM
42 | COP(=O)(Nc1cc(-c2ccc(-c3cc4ccccc4o3)cc2)sc1C(=O)O)c1ccc(C)cc1C (stereo not shown) [Compound 125] | < 0.1 µM | < 0.1 µM | > 8.3 µM
43 | COP(=O)(Nc1cc(-c2ccc(N)cc2)sc1C(=O)O)c1ccc(C)cc1C (stereo not shown) [Compound 126] | 0.1 to 8.3 µM | > 8.3 µM | > 8.3 µM
44 | COP(=O)(Nc1cc(-c2ccc([N+](=O)[O-])cc2)sc1C(=O)O)c1ccc(C)cc1C (stereo not shown) [Compound 127] | < 0.1 µM | 0.1 to 8.3 µM | > 8.3 µM
45 | COP(=O)(Nc1cc(-c2ccc(-c3c(C)noc3C)cc2)sc1C(=O)O)c1ccc(C)cc1C (stereo not shown) [Compound 128] | 0.1 to 8.3 µM | > 8.3 µM | > 8.3 µM
46 | COP(=O)(Nc1cc(-c2ccc(-c3ccc(C(F)(F)F)cc3)cc2)sc1C(=O)O)c1ccc(C)cc1C (stereo not shown) [Compound 129] | < 0.1 µM | 0.1 to 8.3 µM | > 8.3 µM
47 | COP(=O)(Nc1cc(-c2ccc(I)cc2)sc1C(=O)O)c1ccc(C)cc1C (stereo not shown) [Compound 132] | 0.1 to 8.3 µM |  | > 8.3 µM
48 | COP(=O)(Nc1cc(-c2ccc(Cl)cc2)sc1C(=O)O)c1ccc(Cl)cc1F (stereo not shown) [Compound 133] | 0.1 to 8.3 µM | 0.1 to 8.3 µM | > 8.3 µM
49 | COP(=O)(Nc1cc(-c2ccc(Cl)cc2)sc1C(=O)O)c1ccc(Cl)cc1C (stereo not shown) [Compound 134] | < 0.1 µM | 0.1 to 8.3 µM | > 8.3 µM
50 | CCOP(=O)(Nc1cc(-c2ccc(Cl)cc2)sc1C(=O)O)c1ccc(Cl)cc1C (stereo not shown) [Compound 136] | < 0.1 µM | 0.1 to 8.3 µM | > 8.3 µM
51 | COP(=O)(c1ccc(C)cc1C)N(C)c1cc(-c2ccc(-c3cc4ncccn4n3)cc2)sc1C(=O)O (stereo not shown) [Compound 138] | < 0.1 µM | < 0.1 µM | > 8.3 µM
